Laboratory results taken from patent US9943473B2, “Zinc lysine halide complex” (Colgate-Palmolive Company, priority 2012, dated 2018).

Legend:
S. aureus = assay: Zone of inhibition test on TSA plates; assay type: cell-based
Description: (§1) A zone of inhibition test is conducted on several materials: zinc oxide and amino acid hydrohalide alone and a mixture formed from zinc oxide and amino acid hydrohalide. The method involves making a lawn of freshly prepared bacterial culture on TSA (trypticase soy agar) plates. Sterile filter paper discs are seeded with 20 μl of test sample (supernatant or mixture). Sample-coated filter paper discs are air dried and applied onto the bacterial lawn on TSA plates. Plates are incubated for 20 hours at 37° C.

C. minutissimum = assay: Zone of inhibition test on TSA plates; assay type: cell-based
Description: as §1

S. epider. = assay: Zone of inhibition test on TSA plates; assay type: cell-based
Description: as §1

C. xerosis = assay: Zone of inhibition test on TSA plates; assay type: cell-based
Description: as §1

[1] = Hydrolysis reaction: pH and turbidity of diluted ZLC solutions before and after aging; assay type: physicochemical; conditions: for pH after aging / turbidity after aging: aged at 37° C. over 5 hours
Description: A 185 mg/ml solution of ZLC is prepared and diluted several-fold and aged in a 37° C. oven over 5 hours for turbidity studies. […] Turbidity of the solutions is measured using a nephelometer, results being given in nephelometric turbidity units (NTU).
The precipitates formed in the 8×, 16× and 32× diluted solutions are collected by centrifugation and identified as crystalline ZnO by PXRD. From the supernatant, a single crystal is grown and shown by X-ray diffraction to be Lysine Monohydrochloride Dihydrate (Lysine.HCl.2H2O).

[2] = molecular target: Bovine Serum Albumin (BSA) (Bos taurus, UniProt P02769); assay: Flocculation of ZLC in the presence of protein (turbidity, pH); conditions: ZLC about 15 mg/ml, 5 hours at 37° C.
Description: Turbidity and pH of solutions are measured 5 hours after the mixtures were placed in a 37° C. oven, and the results are shown in Table 6.

[3] = general description; cited from earlier work
[4] = Table 3, sample form not stated
[5] = sample 1: DI water, 0% BSA, pH 6.4

Sequence of Bovine Serum Albumin (BSA) (P02769 25-607): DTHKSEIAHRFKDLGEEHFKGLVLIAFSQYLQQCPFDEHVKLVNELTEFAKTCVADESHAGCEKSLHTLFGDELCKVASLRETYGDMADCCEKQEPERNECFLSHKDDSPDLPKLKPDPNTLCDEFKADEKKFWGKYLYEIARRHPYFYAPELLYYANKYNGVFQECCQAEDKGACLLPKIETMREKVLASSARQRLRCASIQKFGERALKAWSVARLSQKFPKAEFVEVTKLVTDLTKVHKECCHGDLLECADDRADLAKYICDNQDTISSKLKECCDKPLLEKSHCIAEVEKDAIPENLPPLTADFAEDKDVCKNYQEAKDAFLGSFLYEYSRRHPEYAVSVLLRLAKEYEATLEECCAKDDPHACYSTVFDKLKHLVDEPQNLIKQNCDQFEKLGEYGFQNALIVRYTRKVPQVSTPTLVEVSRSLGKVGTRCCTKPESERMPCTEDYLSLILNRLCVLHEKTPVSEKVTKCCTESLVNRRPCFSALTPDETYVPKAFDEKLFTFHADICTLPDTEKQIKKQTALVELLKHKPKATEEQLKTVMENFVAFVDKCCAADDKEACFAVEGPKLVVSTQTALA

N=C(N)NCCC[C@H](N)C(=O)O [Arginine 4%, arginine]
Zone of Inhibition (S. aureus; [4]): 0 mm | Zone of Inhibition (C. minutissimum; [4]): 0 mm

NCCCC[C@H](N)C(=O)O [Lysine 4%, lysine]
Zone of Inhibition (S. aureus; [4]): 0 mm | Zone of Inhibition (C. minutissimum; [4]): 0 mm

Cl.NCCCC[C@H](N)C(=O)O [Lysine-HCl 23.2%, lysine hydrochloride]
Zone of Inhibition (S. epider.; Dry Sample, As is): 0 mm | Zone of Inhibition (S. epider.; Wet Sample, As is): 0 mm | Zone of Inhibition (C. xerosis; Dry Sample, As is): 0 mm | Zone of Inhibition (C. xerosis; Wet Sample, As is): 0 mm | Zone of Inhibition (S. aureus; Dry Sample, As is): 0 mm | Zone of Inhibition (S. aureus; [4]): 0 mm | Zone of Inhibition (S. aureus; Wet Sample, As is): 0 mm | Zone of Inhibition (C. minutissimum; [4]): 0 mm

[Cl-].[Cl-].[OH-].[OH-].[OH-].[OH-].[OH-].[OH-].[OH-].[OH-].[Zn+2].[Zn+2].[Zn+2].[Zn+2].[Zn+2] [TBZC (4%), zinc chloride hydroxide monohydrate]
Zone of Inhibition (C. minutissimum; Table 3, Mixture): 7 mm | Zone of Inhibition (C. minutissimum; Table 3, Supernat): 7 mm

NCCCCC(N)C(=O)O.NCCCCC(N)C(=O)O.O.O.[Cl-].[Cl-].[Zn+2] (stereo not drawn) [ZLC, [Zn(Lysine)2Cl]^+Cl^−.2H2O]
initial turbidity ([1]; 5.78 mg/ml): 40.1 NTU | pH after aging ([1]; 5.78 mg/ml): 8 | turbidity after aging ([1]; 5.78 mg/ml): >1000 NTU | initial turbidity ([1]; 11.56 mg/ml): 14.8 NTU | pH after aging ([1]; 11.56 mg/ml): 7.8 | turbidity after aging ([1]; 11.56 mg/ml): >1000 NTU | initial turbidity ([1]; 23.125 mg/ml): 0.7 NTU | pH after aging ([1]; 23.125 mg/ml): 7.7 | turbidity after aging ([1]; 23.125 mg/ml): 247.4 NTU | initial turbidity ([1]; 46.25 mg/ml): 1.5 NTU | pH after aging ([1]; 46.25 mg/ml): 7.4 | turbidity after aging ([1]; 46.25 mg/ml): 2.8 NTU | initial turbidity ([1]; 92.5 mg/ml): 2.8 NTU | pH after aging ([1]; 92.5 mg/ml): 7 | turbidity after aging ([1]; 92.5 mg/ml): 2.6 NTU | initial turbidity ([1]; 185 mg/ml): 4.7 NTU | pH after aging ([1]; 185 mg/ml): 6.8 | turbidity after aging ([1]; 185 mg/ml): 4.1 NTU | stability of the complex upon dilution ([1]; 8×, 16× and 32× diluted solutions, precipitate identified as crystalline ZnO by PXRD): disassociates upon dilution, with consequent precipitation of zinc oxide | Turbidity [2, 5]: 357 NTU | pH [2, 5]: 8 | Turbidity ([2]; sample 2: 1% BSA, pH 7.2): >1000 NTU | pH ([2]; sample 2: 1% BSA, pH 7.2): 8.2 | Turbidity ([2]; sample 3: 1% BSA, pH adjusted to 5.1): >1000 NTU

[O]=[Zn] [ZnO(4%), zinc oxide]
solubility in water [3]: insoluble in water | Zone of Inhibition (S. epider.; Dry Sample, Mixture): 10 mm | Zone of Inhibition (S. epider.; Dry Sample, Supernatant): 0 mm | Zone of Inhibition (S. epider.; Wet Sample, Mixture): 12 mm | Zone of Inhibition (S. epider.; Wet Sample, Supernatant): 0 mm | Zone of Inhibition (C. xerosis; Dry Sample, Mixture): 0 mm | Zone of Inhibition (C. xerosis; Dry Sample, Supernatant): 0 mm | Zone of Inhibition (C. xerosis; Wet Sample, Mixture): 0 mm | Zone of Inhibition (C. xerosis; Wet Sample, Supernatant): 0 mm | Zone of Inhibition (S. aureus; Dry Sample, Mixture): 7 mm | Zone of Inhibition (S. aureus; Dry Sample, Supernatant): 0 mm | Zone of Inhibition (S. aureus; Wet Sample, Mixture): 7 mm | Zone of Inhibition (S. aureus; Wet Sample, Supernatant): 0 mm
